Experimental data taken from patent US9394264B2 (Receptos, Inc., priority 2009, dated 2016).

Each molecule was assayed against S1P1/EDG1 (Homo sapiens, UniProt P21453) (assay: S1P1 CRE-bla CHOK1 reporter assay (inhibition of Forskolin induced cAMP)). Settings: agonist activity range, S1P1 CRE-bla CHOK1 cells, 2 μM Forskolin; read-out: S1P1 ACTIVITY.
Format: cell-based
Text: A mammalian expression plasmid containing S1P1/EDG1 cloned into pcDNA3.1 was purchased from Missouri S&T cDNA Resource Centre. The nucleotide and amino acid sequence of human S1P1/EDG1 are published in Hla and Maciag (J Biol Chem, 265(1990), 9308-9313). S1P1/pcDNA3.1 was transfected into the CRE-bla CHO K1 (Invitrogen) cell line, and stable single cell clones were selected using standard techniques. Expression of functional S1P1/EDG1 receptor was confirmed by cell surface FACS with a S1P1 antibody (R&D Systems, clone 218713) and S1P-mediated inhibition of Forskolin induced cAMP.
Cells were seeded into 384-well black wall/clear bottom plates at 10^4 cells/well/19.5 μl assay media (DMEM-phenol free, 0.5% charcoal/dextran stripped serum, 2 mM glutamine, 0.1 mM NEAA, 1 mM Na-Pyruvate, 25 mM Hepes) and incubated for 18 hrs at 37° C. in 5% CO2. Dose response curves (10-point) were generated in 10 mM Hepes, 0.1% Pluronic F127, in the presence of Forskolin. Cells were treated with 0.5 μl compound in the presence of 2 μM Forskolin for 4 hrs at 37° C. The FRET-based β-lactamase fluorescent substrate (LiveBLAzer™-FRET B/G Loading Kit CC4-AM; Invitrogen) was prepared according to manufacturer's directions, and incubated with cells for 2 hrs at room temperature. Plates were read at Ex:410/Em:458 and Ex:410/Em:522, and the response ratio determined. Data was analyzed by non-linear regression to determine the EC50 for inhibition of Forskolin induced cAMP.

Sequence of S1P1/EDG1 (P21453 whole entry): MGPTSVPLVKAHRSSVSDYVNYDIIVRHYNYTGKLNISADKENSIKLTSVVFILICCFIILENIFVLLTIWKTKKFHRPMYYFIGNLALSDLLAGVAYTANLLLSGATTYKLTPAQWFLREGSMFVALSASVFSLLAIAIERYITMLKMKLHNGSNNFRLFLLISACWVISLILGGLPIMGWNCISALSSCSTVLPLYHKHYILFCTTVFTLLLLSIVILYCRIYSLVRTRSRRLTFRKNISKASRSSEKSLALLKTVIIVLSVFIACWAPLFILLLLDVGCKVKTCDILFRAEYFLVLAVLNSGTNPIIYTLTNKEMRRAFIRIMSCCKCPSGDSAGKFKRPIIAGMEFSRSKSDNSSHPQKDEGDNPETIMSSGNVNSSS

SMILES	EC50
CC(C)Oc1ccc(-c2nc(-c3cccc4c3CCC[C@H]4O)no2)cc1C#N [Compound 1, (R)-5-(3-(5-hydroxy-5,6,7,8-tetrahydronaphthalen-1-yl)-1,2,4-oxadiazol-5-yl)-2-isopropoxybenzonitrile]	0.05 to 0.5 nM
CC(C)Oc1ccc(-c2nc(-c3cccc4c3CCC[C@@H]4O)no2)cc1C#N [Compound 2, (S)-5-(3-(5-hydroxy-5,6,7,8-tetrahydronaphthalen-1-yl)-1,2,4-oxadiazol-5-yl)-2-isopropoxybenzonitrile]	< 0.05 nM
CC(C)Oc1ccc(-c2nc(-c3cccc4c3CCC[C@H]4N)no2)cc1C#N [Compound 3, (R)-5-(3-(5-amino-5,6,7,8-tetrahydronaphthalen-1-yl)-1,2,4-oxadiazol-5-yl)-2-isopropoxybenzonitrile]	0.5 to 5 nM
CC(C)Oc1ccc(-c2nc(-c3cccc4c3CCC[C@@H]4N)no2)cc1C#N [Compound 4, (S)-5-(3-(5-amino-5,6,7,8-tetrahydronaphthalen-1-yl)-1,2,4-oxadiazol-5-yl)-2-isopropoxybenzonitrile]	0.05 to 0.5 nM
CC(C)Oc1ccc(-c2nc(-c3cccc4c3CCC[C@H]4NC(=O)N(C)C)no2)cc1C#N [Compound 5]	0.05 to 0.5 nM
CC(C)Oc1ccc(-c2nc(-c3cccc4c3CCC[C@@H]4NC(=O)N(C)C)no2)cc1C#N [Compound 6]	0.05 to 0.5 nM
CC(C)Oc1ccc(-c2nc(-c3cccc4c3CCC[C@H]4NC(=O)N3CC(O)C3)no2)cc1C#N [Compound 7, (R)-N-(5-(5-(3-cyano-4-isopropoxyphenyl)-1,2,4-oxadiazol-3-yl)-1,2,3,4-tetrahydronaphthalen-1-yl)-3-hydroxyazetidine-1-carboxamide]	0.05 to 0.5 nM
CC(C)Oc1ccc(-c2nc(-c3cccc4c3CCC[C@@H]4NC(=O)N3CC(C(=O)O)C3)no2)cc1C#N [Compound 9]	0.05 to 0.5 nM
CC(C)Oc1ccc(-c2nc(-c3cccc4c3CCC[C@H]4NC(=O)N3CC(C(=O)O)C3)no2)cc1C#N [Compound 10]	0.05 to 0.5 nM
CC(C)Oc1ccc(-c2nc(-c3cccc4c3CCC[C@H]4NC(=O)N3CCCC3)no2)cc1C#N [Compound 11]	0.05 to 0.5 nM
CC(C)Oc1ccc(-c2nc(-c3cccc4c3CCC[C@@H]4NC(=O)N3CCCC3)no2)cc1C#N [Compound 12, (S)-N-(5-(5-(3-cyano-4-isopropoxyphenyl)-1,2,4-oxadiazol-3-yl)-1,2,3,4-tetrahydronaphthalen-1-yl)pyrrolidine-1-carboxamide]	0.05 to 0.5 nM
CC(C)Oc1ccc(-c2nc(-c3cccc4c3CCC[C@@H]4NC(=O)N3CC[C@H](O)C3)no2)cc1C#N [Compound 14]	0.05 to 0.5 nM
CC(C)Oc1ccc(-c2nc(-c3cccc4c3CCC[C@@H]4NC(=O)N3CCOCC3)no2)cc1C#N [Compound 15, (S)-N-(5-(5-(3-cyano-4-isopropoxyphenyl)-1,2,4-oxadiazol-3-yl)-1,2,3,4-tetrahydronaphthalen-1-yl)morpholine-4-carboxamide]	0.05 to 0.5 nM
CC(C)Oc1ccc(-c2nc(-c3cccc4c3CCC[C@H]4NC(=O)N3CCOCC3)no2)cc1C#N [Compound 16]	0.5 to 5 nM
CC(C)Oc1ccc(-c2nc(-c3cccc4c3CCC[C@@H]4NC(=O)N3CCC[C@H](O)C3)no2)cc1C#N [Compound 17]	0.5 to 5 nM
CC(C)Oc1ccc(-c2nc(-c3cccc4c3CCC[C@H]4NC(=O)N3CCC[C@H](O)C3)no2)cc1C#N [Compound 18]	0.5 to 5 nM
CC(C)Oc1ccc(-c2nc(-c3cccc4c3CCC[C@H]4NC(=O)N3CCC(O)CC3)no2)cc1C#N [Compound 19]	0.5 to 5 nM
CC(C)Oc1ccc(-c2nc(-c3cccc4c3CCC[C@H]4NC(=O)N3CC[C@@H](N(C)C)C3)no2)cc1C#N [Compound 20, (R)-N-((R)-5-(5-(3-cyano-4-isopropoxyphenyl)-1,2,4-oxadiazol-3-yl)-1,2,3,4-tetrahydronaphthalen-1-yl)-3-(dimethylamino)pyrrolidine-1-carboxamide]	0.5 to 5 nM
